Source: PMC9738565, “N1-Benzyl Tryptamine Pan-SHIP1/2 Inhibitors: Synthesis and Preliminary Biological Evaluation as Anti-Tumor Agents” (Molecules, 2022)
Read-outs that look alike come from different tables or passages of the source. Marks after values point to notes of the source that are not given here.

Key:
SHIP2 [1] = target: T1, SHIP2 (Homo sapiens, UniProt O15357); assay: Malachite green phosphatase release assay, SHIP2; assay type: biochemical; conditions: for inhibition at 250 µM: read-out: Malachite (250 µM) % Inhib. SHIP2; for inhibition at 500 µM: read-out: Malachite (500 µM) % Inhib. SHIP2; for activity against SHIP2 (in words): summary of Table 1
T1 construct: purchased Echelon Biosciences
T1 sequence (O15357 1-1258): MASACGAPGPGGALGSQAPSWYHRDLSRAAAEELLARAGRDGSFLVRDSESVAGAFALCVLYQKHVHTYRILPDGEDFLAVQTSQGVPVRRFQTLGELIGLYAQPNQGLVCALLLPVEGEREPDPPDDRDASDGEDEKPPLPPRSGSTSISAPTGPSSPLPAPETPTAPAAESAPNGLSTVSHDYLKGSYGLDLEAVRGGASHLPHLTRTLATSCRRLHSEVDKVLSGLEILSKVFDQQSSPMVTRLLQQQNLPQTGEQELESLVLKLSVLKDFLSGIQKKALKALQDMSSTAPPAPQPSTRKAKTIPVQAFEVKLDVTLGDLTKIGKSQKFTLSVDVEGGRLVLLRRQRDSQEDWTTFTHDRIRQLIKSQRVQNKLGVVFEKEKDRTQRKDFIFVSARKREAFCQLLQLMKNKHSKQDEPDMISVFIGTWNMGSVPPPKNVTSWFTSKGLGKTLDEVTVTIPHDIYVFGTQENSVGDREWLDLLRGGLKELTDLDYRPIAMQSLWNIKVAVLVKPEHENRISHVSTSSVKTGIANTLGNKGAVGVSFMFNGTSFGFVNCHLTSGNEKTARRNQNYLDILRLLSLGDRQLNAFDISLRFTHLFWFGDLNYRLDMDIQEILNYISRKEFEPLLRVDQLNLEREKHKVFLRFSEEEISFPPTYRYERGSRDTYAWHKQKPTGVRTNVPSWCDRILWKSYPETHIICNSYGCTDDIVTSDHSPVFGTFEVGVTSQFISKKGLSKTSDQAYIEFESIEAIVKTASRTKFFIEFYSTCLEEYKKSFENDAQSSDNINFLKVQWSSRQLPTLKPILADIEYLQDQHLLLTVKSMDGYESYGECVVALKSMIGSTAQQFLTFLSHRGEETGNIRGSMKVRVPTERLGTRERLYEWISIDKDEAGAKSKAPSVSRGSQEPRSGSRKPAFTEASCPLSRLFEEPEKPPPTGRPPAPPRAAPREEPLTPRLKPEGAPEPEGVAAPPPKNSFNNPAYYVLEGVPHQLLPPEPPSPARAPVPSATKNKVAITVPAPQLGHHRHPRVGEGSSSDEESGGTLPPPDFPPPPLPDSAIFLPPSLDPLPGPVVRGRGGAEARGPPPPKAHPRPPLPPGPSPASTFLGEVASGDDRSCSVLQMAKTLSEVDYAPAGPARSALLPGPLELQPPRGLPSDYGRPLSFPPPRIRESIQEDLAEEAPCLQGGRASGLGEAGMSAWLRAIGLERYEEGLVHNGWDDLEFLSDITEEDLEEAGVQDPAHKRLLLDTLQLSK
Description: (§1) These compounds were then tested for their activity against the two SHIP paralogs, SHIP1 and SHIP2 in the colorimetric malachite green phosphatase assay. The malachite green assay detects the amount of free phosphate produced from enzymatic reactions with SHIP and an inositol phospholipid substrate.
(§2) 4.7. Malachite Green Phosphatase Release Assays
(§3) Malachite green assays to monitor phosphatase release (Echelon Biosciences) were performed with recombinant human truncated SHIP1 (tSHIP1) and SHIP2 (Echelon Biosciences). Serial dilutions of the compounds dissolved in DMSO were added to the recombinant enzymes diluted in reaction buffer Rx (50 mM Hepes pH 7.4, 150 mM NaCl, 1 mM MgCl2, 0.25 mM EDTA) in triplicate reaction wells in 96-well plates. After incubation for 2 min at room temperature, 2.5 µL of 1 mM phosphatidylinositol 3,4,5-trisphosphate diC8 (PI(3,4,5)P3-diC8, Echelon Biosciences) was added to each reaction to a final concentration of 100 µM in a final volume of 25 µL /well. Following a 20 min incubation at 37 °C, 100 µL of Malachite Green solution (Echelon Biosciences) was added to each well and the plates were incubated at room temperature in the dark for 15 min. Plates were then read at 620 nm on a plate reader (Synergy 2, BioTek, Santa Clara, CA, USA). In addition, 3α-Aminocholestane, a known SHIP1 inhibitor, and AS1949490, a known SHIP2 inhibitor, were used as positive controls.

[2] = test system: recombinant human truncated SHIP1 (tSHIP1); assay: Malachite green phosphatase release assay, SHIP1; assay type: biochemical; conditions: for Malachite (250 µM) % Inhib. SHIP1: 250 µM compound; for Malachite (500 µM) % Inhib. SHIP1: 500 µM compound; for activity against SHIP1 (in words): summary of Table 1
Description: These compounds were then tested for their activity against the two SHIP paralogs, SHIP1 and SHIP2 in the colorimetric malachite green phosphatase assay. The malachite green assay detects the amount of free phosphate produced from enzymatic reactions with SHIP and an inositol phospholipid substrate. The Malachite assay is useful for ruling out compounds that are fluorescent or have aggregation issues and is inexpensive, so it was utilized as the primary screen even though it is not as sensitive as other assays.
as §2, §3

[3] = Behaviour of compound when mixed with assay buffer; assay type: physicochemical
Description: Compounds with modifications of the primary amine of the tryptamine were also tested. […] While SHIP1 agonists may have applications as anti-inflammatories, the agonist activity of 15 was weak and therefore was not further pursued. […] While these analogs may present a path towards selective inhibitors of SHIP2, these compounds will not be useful in determining the effects of pan-SHIP inhibition in tumor models.

SHIP2 [4] = target: T1, SHIP2; assay: Fluorescence Polarization (FP) assay for the detection of PI(3,4)P2, SHIP2; assay type: biochemical; conditions: read-out: IC50 SHIP2 (via FP)
tSHIP1 = target: T2, tSHIP1 (Homo sapiens, UniProt Q92835); assay: Fluorescence Polarization (FP) assay for the detection of PI(3,4)P2, SHIP1; assay type: biochemical; conditions: FP assay; read-out: IC50 SHIP1 (Via FP)
T2 sequence (Q92835 399-715 limits assumed): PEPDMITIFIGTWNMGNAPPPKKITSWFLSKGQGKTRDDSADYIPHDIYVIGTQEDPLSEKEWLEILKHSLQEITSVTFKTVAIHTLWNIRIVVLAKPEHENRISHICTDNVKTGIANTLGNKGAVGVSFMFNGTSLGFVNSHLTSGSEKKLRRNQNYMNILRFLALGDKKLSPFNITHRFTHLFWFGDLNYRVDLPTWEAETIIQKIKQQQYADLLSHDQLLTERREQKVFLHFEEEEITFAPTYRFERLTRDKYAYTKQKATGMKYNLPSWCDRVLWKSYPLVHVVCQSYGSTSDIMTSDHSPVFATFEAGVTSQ
Description: as §1
4.8. Fluorescence Polarization (FP) Assays for the Detection of PI(3,4)P2
The FP Assay for the detection of PI(3,4)P2 (Echelon Biosciences) was performed using tSHIP1 [48] with serial dilutions of the tryptamines in DMSO according to the manufacturer’s recommendation as previously described. […] 40 µL of 4 µM PIP3 (PI(3,4,5)P3-diC8) in Rx buffer is added to each reaction and incubated at 37 °C for 20 min, followed by heat inactivation for 3 min at 95 °C. Reactions were spun down briefly and 10 µL of each reaction was added in 6 replicate wells to a black 384-well plate provided with the FP kit. 10 µL of 1X reconstituted Detector (a phosphoinositide binding protein) in PBS is then added to each well, followed by 5 µL of 1X freshly diluted Probe (in PBS, a fluorophore-labeled phosphoinositide) protected from light. Assay plates are gently tapped to mix, the plate is sealed and spun down briefly and the reaction is allowed to equilibrate for 60 min at room temperature protected from light.

| Compound | inhibition at 250 µM (SHIP2 [1]; 250 µM compound) | inhibition at 500 µM (SHIP2 [1]; 500 µM compound) | Malachite (250 µM) % Inhib. SHIP1 [2] | Malachite (500 µM) % Inhib. SHIP1 [2] | activity against SHIP1 (in words) [2] | inhibition at 250 µM (SHIP2 [1]) | inhibition at 500 µM (SHIP2 [1]) | activity against SHIP2 (in words) (SHIP2 [1]) | solubility behaviour in buffer [3] | IC50 (SHIP2 [4]) | IC50 (tSHIP1) |
| --- | --- | --- | --- | --- | --- | --- | --- | --- | --- | --- | --- |
| CCNCCc1c(C)n(Cc2ccccc2Cl)c2ccc(SC)cc12 [Compound 17, (2{1-[(2-Chlorophenyl)methyl]-2-methyl-5-(methylsulfanyl-1H-indol-3-yl}ethyl)ethylaminium chloride] | 13% | 47% | 1% | 21% | no inhibition | – | – | – | – | – | – |
| CNCCc1c(C)n(Cc2ccccc2Cl)c2ccc(SC)cc12 [Compound 13, (2{1-[(2-Chlorophenyl)methyl]-2-methyl-5-(methylsulfanyl-1H-indol-3-yl}ethyl)methylaminium chloride] | 14% | 38% | 0% | 9% | no inhibition | – | – | – | – | – | – |
| CSc1ccc2[nH]c(C)c(CCN)c2c1.Cl [Compound 7f, 2-(2-Methyl-5-(methylthio)-1H-indol-3-yl)ethanaminium chloride] | – | – | 0% | 0% | virtually no activity | 0% | 2% | virtually no activity | – | – | – |
| CSc1ccc2c(c1)c(CCN(C)C)c(C)n2Cc1ccccc1Cl [Compound 14, (2{1-[(2-Chlorophenyl)methyl]-2-methyl-5-(methylsulfanyl-1H-indol-3-yl}ethyl)dimethylaminium chloride] | 0% | 6% | 0% | 5% | inactive | – | – | inactive | – | – | – |
| CSc1ccc2c(c1)c(CCNC(C)=O)c(C)n2Cc1ccccc1Cl [Compound 16] | 0% | 0% | 25% ^a | 0% ^a | – | – | – | – | tended to precipitate when mixed with buffer | – | – |
| CSc1ccc2c(c1)c(CCN)c(C)n2Cc1ccc(Br)cc1.Cl [Compound 7c, 2-(1-(4-Bromobenzyl)-2-methyl-5-(methylthio)-1H-indol-3-yl)ethanaminium chloride] | 30% | 38% | 3% | 47% | – | – | – | – | – | 58 µM | 51 µM |
| CSc1ccc2c(c1)c(CCN)c(C)n2Cc1ccccc1.Cl [Compound 7e, 2-(1-Benzyl-2-methyl-5-(methylthio)-1H-indol-3-yl)ethanaminium chloride] | 28% | 39% | 0% | 40% | active analog | – | – | active analog | – | 12 µM | 13 µM |
| CSc1ccc2c(c1)c(CCNS(C)(=O)=O)c(C)n2Cc1ccccc1Cl [Compound 15, N-(2{1-[(2-Chlorophenyl)methyl]-2-methyl-5-(methylsulfanyl)-1H-indol-3-yl}ethyl) methanesulfonamide] | – | – | −10% | −27% | weak agonist | – | – | – | – | – | – |
| CSc1ccc2c(c1)c(CCN)c(C)n2Cc1ccc(Cl)cc1.Cl [Compound 7b, 2-(1-(4-Chlorobenzyl)-2-methyl-5-(methylthio)-1H-indol-3-yl)ethanaminium chloride] | 18% | 49% | 0% | 33% | significant activity | – | – | significant activity | – | – | 11 µM |
